Measured values taken from publication PMC3873602, “Atheroprotective Vaccination with MHC-II Restricted Peptides from ApoB-100” (Frontiers in Immunology, 2013).
“Also recorded” adds a separate entry of the source. Read-outs that look alike come from different tables or passages of the source. Ends that are not written are not given here.

Columns and labels:
H-2 I-A^b [1] = biological target: T1, H-2 I-A^b (Mus musculus, UniProt P14434+P14483); assay: I-A^b binding affinity, competitive inhibition assay with purified MHC and radio-labeled ligand
T1 sequence (P14434 24-256): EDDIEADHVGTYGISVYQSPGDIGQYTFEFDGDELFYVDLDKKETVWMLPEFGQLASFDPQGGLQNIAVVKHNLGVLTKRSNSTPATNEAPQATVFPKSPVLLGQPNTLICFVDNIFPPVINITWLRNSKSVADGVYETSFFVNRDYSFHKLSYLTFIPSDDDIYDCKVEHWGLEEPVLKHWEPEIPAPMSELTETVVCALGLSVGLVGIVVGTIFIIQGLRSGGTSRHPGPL
T1 sequence (P14483 28-265): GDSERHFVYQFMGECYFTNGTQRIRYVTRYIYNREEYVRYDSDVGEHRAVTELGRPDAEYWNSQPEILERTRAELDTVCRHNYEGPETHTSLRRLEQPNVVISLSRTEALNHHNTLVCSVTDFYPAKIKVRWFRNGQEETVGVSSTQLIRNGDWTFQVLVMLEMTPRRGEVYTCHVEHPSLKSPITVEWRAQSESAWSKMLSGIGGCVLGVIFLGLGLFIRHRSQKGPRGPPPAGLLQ
Method: We measured I-A^b binding affinity using a classical competitive inhibition assay utilizing purified MHC and high affinity radio-labeled I-A^b ligands ([39]). Their ability to displace the radio-labeled I-A^b ligand was measured, and an inhibitory concentration required to displace 50% of the radio-labeled ligand (IC50) was determined.
A peptide can only be recognized by a CD4^+ helper T-cell if it is bound to MHC class II. Because Apoe^−/− mice are on a C57B/6 background, candidate epitopes must be able to bind to the Class II allele, I-A^b. Previously, it has been shown that I-A^b binding motifs can be predicted using algorithms based on the number of anchor residues and hydrophobicity ([36]–[38]). […] The binding affinity is reflected by the amount of peptide, in […], needed to inhibit binding of a standardized radio-labeled peptide by 50% (the IC50) ([39]).

H-2 I-A^b [2] = biological target: T1, H-2 I-A^b; details: known T-cell epitope for comparison; cited from earlier work
Excerpt: Because Apoe^−/− mice are on a C57B/6 background, candidate epitopes must be able to bind to the Class II allele, I-A^b. Previously, it has been shown that I-A^b binding motifs can be predicted using algorithms based on the number of anchor residues and hydrophobicity ([36]–[38]).

mice = details: human ApoB-100 B-cell epitope; cited from earlier work
Excerpt: Several studies have reported a protective effect of vaccination with LDL, or ox-LDL, on the development of atherosclerotic plaque ([23]–[25]). However, the mechanism by which these immunizations convey atheroprotection is an ongoing area of research. […] This was initially a promising hypothesis which subsequently led to the search for atheroprotective B-cell (antibody) epitopes. The discovery of such epitopes was first reported by ...

I-Ab = I-Ab (Mus musculus, UniProt P14434+P14483); details: MHC Class II allele of Apoe^−/− and LDL-R^−/− mice; cited from earlier work
Excerpt: More recently, researchers have sought to describe the changes in cellular (rather than humoral) immunity that may result from immunization with B-cell epitopes from ApoB-100. Several recent papers have reported an increase in FoxP3^+ expressing TREGS in secondary lymphoid organs [spleens ([32]) and lymph nodes ([33])] after immunization of mice with P210. […] It is not known whether these TREGS are causally related to the atheroprotection that is observed.

Apoe^−/− mice [3] = assay: Aortic root plaque quantification (Oil Red O) after 1× CFA + 4× IFA immunization; assay type: in vivo, mouse; details: female Apoe^−/− mice, 1× CFA + 4× IFA scheme, WD 13 weeks; vs adjuvant-only mice; N = 5
Excerpt: Eight-week-old female Apoe^−/− mice on C57BL/6 background were purchased from Jackson Laboratories (Bar Harbor, ME, USA). Mice were housed in a specific pathogen free environment and fed chow diet until 10 weeks of age. At 10 weeks of age, mice were started on WD (adjusted calories diet with 42% from fat, Harlan Labs Cat #: TD.88137, CA, USA) and remained on WD until sacrifice at 23 weeks old.
Aortic root sections were examined as follows. Hearts were harvested, placed in Optimal Cutting Temperature medium (OCT, Electron Microscopy Sciences, Hatfield, PA, USA), and frozen at −80°C. Beginning at the first appearance of the tri-leaflet aortic valve, successive 5 μm transverse sections were made for a distance of 100 μm. From these, we analyzed every other section, for a total of 10 sections per root. Sections were then stained with Oil Red O and counter-stained with hematoxylin. Extent of atherosclerosis was then determined as the area involved on each section. To measure en face lesion formation, the whole aorta was carefully cleaned in situ and then the whole aorta pinned out after paraformaldehyde incubation at RT for at least 2 h. Staining for atherosclerotic plaque was performed by incubating samples in Sudan IV. Quantification was performed using ImagePro software (Media Cybernetics, Rockville, MD, USA). […]

Apoe^−/− mice [4] = assay: Antibody titers in plasma by chemiluminescent enzyme immunoassay; assay type: in vivo, mouse; details: pooled plasma, chemiluminescent ELISA, 1:250 dilution
Method: Antibody titers in plasma were determined by chemiluminescent enzyme immunoassay as previously described ([41]). In brief, white “U” bottom plates (Thermo Lab systems, USA) were coated with various antigens at 5 μg/mL in PBS for overnight incubation. Following blocking with 1% BSA-TBS serum was added in increasing dilutions and incubated at RT for 90 min. Bound antibodies levels were detected using appropriate alkaline phosphatase-conjugated secondary antibodies and a 50% aqueous solution of LumiPhos 530 (Lumigen, USA). Data are expressed as relative light units counted per 100 ms (RLU/100 ms).

H-2 I-A^b (mouse) = assay: radioligand binding; competitive inhibition assay: peptides displace a high affinity radio-labeled I-A^b ligand from purified MHC; (label) < (MHC) and IC50 ≥ (MHC), so that IC50 values approximate the true Kd
[5] = Table 2, ApoB3501–3516- and ApoB978–993-related overlapping peptides, read-out: H-2 I-Ab (IC50 nM)
[6] = Table 1, displacement of 50% of radio-labeled I-A^b ligand, purified MHC, IC50 approximates Kd

CC(C)C[C@H](NC(=O)[C@H](Cc1ccc(O)cc1)NC(=O)[C@@H](NC(=O)[C@H](CC(N)=O)NC(=O)[C@H](C)NC(=O)[C@H](CCC(=O)O)NC(=O)[C@H](CC(N)=O)NC(=O)[C@H](C)NC(=O)[C@@H](NC(=O)[C@H](CO)NC(=O)CNC(=O)[C@@H](N)CO)C(C)C)C(C)C)C(=O)N[C@@H](CC(N)=O)C(=O)N[C@@H](CO)C(=O)N[C@@H](CCCCN)C(=O)NCC(=O)O
IC50 (H-2 I-A^b [1]; [5]): 172 nM

CC(C)C[C@H](NC(=O)[C@H](C)NC(=O)[C@H](Cc1ccc(O)cc1)NC(=O)[C@H](CC(C)C)NC(=O)[C@@H](NC(=O)[C@H](C)NC(=O)[C@H](CCCNC(=N)N)NC(=O)[C@@H](N)CO)[C@@H](C)O)C(=O)N[C@@H](CO)C(=O)N[C@@H](Cc1c[nH]cn1)C(=O)N[C@@H](C)C(=O)N[C@H](C(=O)N[C@@H](CC(N)=O)C(=O)N[C@@H](CO)C(=O)N[C@@H](Cc1ccc(O)cc1)C(=O)O)C(C)C
IC50 (H-2 I-A^b [1]; [6]): 1370 nM

CC(C)C[C@H](NC(=O)[C@H](Cc1ccccc1)NC(=O)[C@H](CO)NC(=O)[C@@H](N)CO)C(=O)N[C@@H](CO)C(=O)N[C@@H](CCC(N)=O)C(=O)N[C@@H](CCC(=O)O)C(=O)N[C@@H](Cc1ccc(O)cc1)C(=O)N[C@@H](CO)C(=O)NCC(=O)N[C@@H](CO)C(=O)N[C@H](C(=O)N[C@@H](C)C(=O)N[C@@H](CC(N)=O)C(=O)N[C@@H](CCC(=O)O)C(=O)N[C@@H](C)C(=O)O)C(C)C
IC50 (H-2 I-A^b [1]; [5]): 6.8 nM

C[C@H](NC(=O)CNC(=O)[C@@H](NC(=O)[C@@H](N)[C@@H](C)O)[C@@H](C)O)C(=O)N[C@@H](Cc1ccc(O)cc1)C(=O)N[C@@H](CO)C(=O)N[C@@H](CC(N)=O)C(=O)N[C@@H](C)C(=O)N[C@@H](CO)C(=O)N[C@@H](CO)C(=O)N[C@H](C(=O)N[C@@H](CCC(=O)O)C(=O)N[C@@H](CO)C(=O)N[C@@H](C)C(=O)N[C@@H](CO)C(=O)N[C@@H](Cc1ccc(O)cc1)C(=O)O)[C@@H](C)O
IC50 (H-2 I-A^b [1]; [5]): 17 nM

GWYRSPFSRVVHLY [MOG38–51]
IC50 (H-2 I-A^b [2]): 354 nM

HLEYVSSELRKSLQV
IC50 (H-2 I-A^b [1]; [6]): 22200 nM

IALDDAKINFNEKLSQLQTY [Peptide P143]
atheroprotection after vaccination of mice (mice): 40–60%

KTTKQSFDLSVKAQYKKNKH [Peptide P210]
binding to I-Ab (I-Ab): does not bind; also recorded: not to bind to I-Ab
atheroprotection after vaccination of mice (mice): 40–60%

MEVGWYRSPFSRVVHLYRNGK [MOG35–55, irrelevant control peptide, myelin oligodendrocyte glycoprotein 35–55]
reduction in aortic sinus (aortic root) plaque development, ORO staining (Apoe^−/− mice [3]): no significant decrease
antibody titers to ApoB3501–3516 or ApoB978–993 in mice immunized with irrelevant peptide (Apoe^−/− mice [4]): no antibody titers
IgG (IgG1, IgG2c) response to the immunizing peptide (Apoe^−/− mice [4]; vs 1× CFA + 4× IFA group): predominantly IgG2c response

NNYALFLSPRAQQAS
IC50 (H-2 I-A^b [1]; [6]): 1300 nM

NVYLNSKGTRSSVRLQ
IC50 (H-2 I-A^b [1]; [5]): 907 nM

SFTKGNIKSSFLSQEY
IC50 (H-2 I-A^b [1]; [5]): 1170 nM

SSTESASYYPLTGDTR
IC50 (H-2 I-A^b [1]; [5]): 1260 nM

TRFKHLRKYTYNYEAESSS [Peptide P2]
atheroprotection after vaccination of mice (mice): 40–60%

YENFAASNKLDVTFS
H-2 I-A^b (IC50 nM) (H-2 I-A^b [1]; [6]): ∞

B1: mouse ApoB-100 peptide 4505–4520 (peptide)
peptide: NNYALFLSPRAQQAS
IC50 (H-2 I-A^b (mouse)): 1300 nM

B2: ApoB_(978–993)-related peptide, position 977, 16 residues (peptide)
peptide: TTGAYSNASSTESASY
IC50 (H-2 I-A^b (mouse)): 17 nM

B3: ApoB_(978–993)-related peptide, position 985, 16 residues (peptide)
peptide: SSTESASYYPLTGDTR
IC50 (H-2 I-A^b (mouse)): 1260 nM

B4: mouse ApoB-100 peptide 438–453 (peptide)
peptide: SRATLYALSHAVNSY
IC50 (H-2 I-A^b (mouse)): 1370 nM

B5: mouse ApoB-100 peptide 4054–4069 (peptide)
peptide: HLEYVSSELRKSLQV
IC50 (H-2 I-A^b (mouse)): 22200 nM

B6: ApoB_(3501–3516)-related peptide, position 3489, 16 residues (peptide)
peptide: SFTKGNIKSSFLSQEY
IC50 (H-2 I-A^b (mouse)): 1170 nM

B7: ApoB_(3501–3516)-related peptide, position 3497, 16 residues (peptide)
peptide: SSFLSQEYSGSVANEA
IC50 (H-2 I-A^b (mouse)): 6.8 nM

B8: ApoB_(3501–3516)-related peptide, position 3505, 16 residues (peptide)
peptide: SGSVANEANVYLNSKG
IC50 (H-2 I-A^b (mouse)): 172 nM

B9: ApoB_(3501–3516)-related peptide, position 3513, 16 residues (peptide)
peptide: NVYLNSKGTRSSVRLQ
IC50 (H-2 I-A^b (mouse)): 907 nM
